Read-outs that look alike come from different tables or passages of the source.
Columns and labels:
Sitophilus granarius = tested on: Sitophilus granarius
Text: (§1) 10 g of powder were placed at the bottom of a Petri dish. 50 “lesser grain borer” insects (Rhizopertha dominica) were then placed on the powder, along with sufficient food to ensure survival for 15 days.
The effect of various silicas and of a mixture of diatomaceous earth supplemented with 10% of silica gel was also compared.

Rhizopertha dominica = conditions: 10 g powder, 50 insects
Text: In this example, a powder comprising 96% of sodium bicarbonate and 4% of amorphous precipitated fumed silica (Aerosil® 200 produced by Degussa) was used. The powder has a particle size such that 100% of the particles have a diameter of less than 160μ and at least 95% have a diameter of less than 100μ.
as §1
In Examples 4 and 5, the procedure was carried out as in Example 3, except that, in Example 4, a powder consisting essentially of sodium bicarbonate was used and, in Example 5, a powder consisting essentially of silica (silica gel) was used.

Acarus siro = conditions: after 48 hours; 10 g powder, 50 mites, mean of 3 samples
Text: (§2) 10 g of sodium bicarbonate powder having a particle size such that 100% of the particles have a diameter of less than 160μ, and at least 95% have a diameter of less than 100μ, were placed at the bottom of a Petri dish. 50 “Acarus siro” wheat mites were then placed on the powder.

Tyrophagus putrescentiae = conditions: after 24 hours; 10 g powder, 50 mites
Protocol: as §2
The procedure was carried out as for Example 1, except that “Tyrophagus putrescentiae” cheese mites were used.

O=C([O-])O.[Na+] [Sodium bicarbonate, sodium bicarbonate]
% mortality (Sitophilus granarius; 24 h): 0% | % mortality (Sitophilus granarius; 48 h): 0% | % mortality (Sitophilus granarius; 72 h): 1% | % mortality (Sitophilus granarius; 4 days): 5% | % mortality (Sitophilus granarius; 7 days): 9% | % mortality (Sitophilus granarius; 10 days): 55% | % mortality (Sitophilus granarius; 15 days): 100% | % mortality (Rhizopertha dominica; 48 h): 2% | % mortality (Rhizopertha dominica; 72 h): 8% | % mortality (Rhizopertha dominica; 4 days): 15% | % mortality (Rhizopertha dominica; 7 days): 21% | % mortality (Rhizopertha dominica; 10 days): 43% | % mortality (Rhizopertha dominica; 15 days): 91% | death of the acarids (Acarus siro): 95% | death of the acarids (Tyrophagus putrescentiae): 100%
